Experimental data from patent US5776935A, “Pyrido-phtalazin diones and their use against neurological disorders associated with excitotoxicity and malfunctioning of glutamatergic neurotransmission” (Merz & Co. GmbH & Co., priority 1996, dated 1998).
Read-outs that look alike come from different tables or passages of the source.

Experiments:
cortical neurones = test: Excitotoxicity in vitro (NMDA, LDH efflux); assay type: cell-based, rat; details: for IC50: Rattus norvegicus, Cortical neurone, 0.5 mM NMDA/1 μM glycine, 24 h, read-out: Cytotoxicity in vitro IC50; for neuroprotection in vitro: low μM concentrations
Description: Isolation of cortical neurones was similar to that described for patch clamp recordings except for the use of foetal rats at 17-19 days gestation. Neurones were plated in 24-multiwell (Greiner) at a density of 300,000 cells/well coated with poly-D-lysine 0.025 mg/ml. Cells were cultured in Dulbecco's modified essential medium (DMEM, GIBCO) supplemented with 10% heat inactivated foetal calf serum (GIBCO). Cultures were maintained at 37° C. at 5% CO2. The medium was changed first after one week and then every 3 days by replacing half of the medium with fresh medium. Cultures aged 17 days were used for experiments.
Exposure to EAA was performed in serum-free MEM-N2 medium (Bottenstein 1979) containing 0.5 mM NMDA/1 μM glycine and the drug to be tested. Cells were pre-incubated with drugs and 1 μM glycine for 15 minutes before addition of NMDA. After 24 h the cytotoxic effect was morphologically examined under a phase contrast microscope and biochemically quantitified by measuring the efflux of LDH.
The activity of LDH was determined in the supernatant after 24 h according to the method of Wroblewski and La Due (1955). Briefly, 0.1 ml of the supernatant was added to 0.9 ml sodium-phosphate buffer (pH=7.5) containing sodium pyruvate (22.7 mM) and NADH (0.8 mg/10 ml) at room temperature. The conversion of pyruvate to lactate was recorded at 340 nm over 10 minutes in a Kontron Spectrophotometer.

NMDA receptor = target: T1, NMDA receptor (Rattus norvegicus, UniProt P35439); test: Microelectrophoretic application of NMDA to spinal neurones in vivo; details: i.v., responses of single rat spinal neurones
T1 construct: endogenous in cells
Description: (§1) The ability of these glycineB antagonists to act as NMDA receptor antagonists in vivo was assessed using i.v. administration against responses of single neurones in the rat spinal cord to microelectrophoretic application of AMPA and NMDA.

AMPA = test: Microelectrophoretic application of AMPA to spinal neurones in vivo; details: i.v., responses of single rat spinal neurones
Description: as §1

AMPA receptor = test: Patch clamp, inward currents to AMPA in cultured superior colliculus neurones; assay type: cell-based, rat; details: AMPA 100 μM
Description: Cells were mechanically dissociated in 0.05% DNAase / 0.3% ovomucoid (Sigma) following a 15 minute pre-incubation with 0.66% trypsin / 0.1% DNAase (Sigma). The dissociated cells were then centrifuged at 18G for 10 minutes, resuspended in minimum essential medium (Gibco) and plated at a density of 200,000 cells cm onto poly-L-lysine (Sigma)-precoated plastic petri dishes (Falcon). The cells were nourished with NaHCO3 /HEPES-buffered minimum essential medium supplemented with 5% foetal calf serum and 5% horse serum (Gibco) and incubated at 37° C. with 5%CO2 at 95% humidity. The medium was exchanged completely following inhibition of further glial mitosis with cytosine-β-D-arabinofuranoside (20 μM Sigma) after about 7 days in vitro. Thereafter the medium was exchanged partially twice weekly. […] Moreover, the relatively small neurones (soma 15-20 μm .phi.) are ideally suited to minimise problems of buffered diffusion for concentration clamp experiments.
Patch clamp recordings were made from these neurones with polished glass electrodes (4-6 m.OMEGA.) in the whole cell mode at room temperature (20°-22° C.) with the aid of an EPC-7 amplifier (List). Test substances were applied by switching channels of a custom made fast superfusion system with a common outflow (10-20 ms exchange times). The contents of the intracellular solution were as follows (mM): CsCl (120), TEACl (20), EGTA (10), MgCl2 (1), CaCl2 (0.2), glucose (10), ATP (2), cAMP (0.25); pH was adjusted to 7.3 with CsOH or HCl. The extracellular solutions had the following basic composition (mM): NaCl (140), KCl (3), CaCl2 (0.2), glucose (10), HEPES (10), sucrose (4.5), tetrodotoxin (TTX 3*10-4). For most experiments glycine (1 μM) was present in all solutions. Experiments to test the glycine-dependence of the tricyclic "pyrido-phtalazin diones" were performed in the continuous presence of increasing concentrations of glycine (1-10 μM).
In contrast, three of these potent glycine, antagonists were only very weak antagonists of inward currents to AMPA (100 μM). […] This profile of action, although very weak, is typical for competitive AMPA receptor antagonists which preferentially block the peak non-desensitised state, low affinity state of the receptor (see Parsons et al., 1994).

organic acid transport = test: Duration of anticonvulsive action with and without probenecid; assay type: in vivo, mouse; details: listed as 2/514
Description: To assess NMDA receptor antagonistic properties of the tested agents by assessing anticonvulsive effects. Additionally the role of organic acid transporters in the elimination from the brain of tested agents was assessed by using an inhibitor, Probenicid, on the duration of anticonvulsive activity.
Male albino Swiss mice (19-21 g) housed 10-15 per cage were used for the NMDA lethality test (Leander et al., 1988). For pentylenetetrazol (PTZ)-induced convulsions male albino Swiss mice (25-34 g.) housed 40 per cage (58×38×20 cm) were used while in the maximal electroshock (MES) and motor impairment tests NMR female mice (18-28 g) housed 5 per cage were employed. All animals were kept with water and food ad libittum under a 12-h light-dark cycle (light on at 6 a.m.), and at a controlled temperature (20°±0.5° C.). All experiments were performed between 10 a.m. and 5 p.m. Tested agents were injected 15 min. i.p before the induction of convulsions if not stated otherwise (see below). Mrz 2/502 was dissolved in saline added with NaOH. Most other agents were dissolved in the following solution: 0.606 g Tris; 5.0 g. glucose; 0.5 g. Tween 80; and 95 ml water. The choline and tetramethylammonium salts were dissolved in distilled water.
MES (100 Hz, 0.5 sec shock duration, 50 mA shock intensity, 0.9 ms impulse duration, Ugo Basile) was applied through corneal electrodes. The presence of tonic convulsions was scored (tonic extension of hind paws with minimum angle to the body of 90°). In an additional experiment mice were injected with Probenicid (200 mg/kg) 30 min before administration of the tested agents to assess the role of organic acid transport in elimination (duration of action). The aim was to obtain ED50 s for all parameters scored using the Litchfield Wilcoxon (1949) test for quantal dose responses.
Moreover it seems that choline salts have a longer duration of action. Probenecid injection prolonged considerably the duration of anticonvulsive action of all agents tested. For example the half lives of 2/514 and 2/570 were around 40 and 80 minutes respectively in the absence of probenicid. In the presence of probenicid the half lives were prolonged to around 180 and 210 minutes respectively. Thus, it seems that organic acids transport in the choroid plexus out of the brain plays an important role in the short duration of action of the compounds tested..

[1] = In vivo systemic and / or CNS availability
[2] = peak currents, read-out: IC50 against peak AMPA induced currents
[3] = peak currents, read-out: Peak AMPA IC50
[4] = plateau currents, read-out: Plateau AMPA IC50

| SMILES | IC50 (cortical neurones) [µM] | neuroprotection in vitro (cortical neurones) | Microelectrophoretic NMDA ID50 (NMDA receptor) [mg/kg] | Microelectrophoretic AMPA ID50 (AMPA) [mg/kg] | IC50 (AMPA receptor; [2]) [µM] | IC50 (AMPA receptor; [3]) [µM] | IC50 (AMPA receptor; [4]) [µM] | in vivo systemic and / or CNS availability versus associated class I compounds [1] | also measured |
| --- | --- | --- | --- | --- | --- | --- | --- | --- | --- |
| O=c1[nH][nH]c(=O)c2nc3ccc(Cl)cc3cc12 [Mrz 2/501] | < 5 | effective neuroprotectants | > 16.0 | > 16.0 |  |  |  |  |  |
| O=c1[nH]nc(O)c2c1cc1cc(Cl)ccc1[n+]2[O-] [Mrz 2/502, 8-chloro-4-hydroxy-1-oxo-1,2-dihydropyridazino[4,5-b]-quinoline 5-oxide] | < 5 | effective neuroprotectants | 1.2 |  | 25 | 25 | > 100 |  | IC50 (AMPA receptor; plateau currents, listed as 502, read-out: Plateau AMPA IC50): 150 µM; Microelectrophoretic NMDA ID50 (NMDA receptor; listed as 502): 1.2 mg/kg; Microelectrophoretic AMPA ID50 (AMPA; listed as 502): 4.9 mg/kg |
| O=c1[nH][nH]c(=O)c2nc3ccc(Br)cc3cc12 [Mrz 2/503] | > 20 |  |  |  |  |  |  |  |  |
| O=c1[nH]nc(O)c2c1cc1cc(Br)ccc1[n+]2[O-] [Mrz 2/514, 8-bromo-4-hydroxy-1-oxo-1,2-dihydropyridazino[4,5-b]-quinoline 5-oxide] |  |  |  |  | 73 | 72.7 | > 100 | much better | half life of anticonvulsive action (organic acid transport; absence of probenecid): around 40 minutes; half life of anticonvulsive action (organic acid transport; presence of probenecid 200 mg/kg, 30 min before): around 180 minutes; IC50 (AMPA receptor; plateau currents, listed as 514, read-out: Plateau AMPA IC50): 307 µM |
| O=c1[nH]nc(O)c2c1cc1cc(F)ccc1[n+]2[O-] [Mrz 2/516, 8-fluoro-4-hydroxy-1-oxo-1,2-dihydropyridazino[4,5-b]-quinoline 5-oxide] |  |  | 1.8 |  | 18 | 17.6 | > 100 | much better | Microelectrophoretic NMDA ID50 (NMDA receptor; listed as 516): 1.8 mg/kg; Microelectrophoretic AMPA ID50 (AMPA; listed as 516): 3.6 mg/kg |
| O=c1[nH][nH]c(=O)c2nc3ccc(F)cc3cc12 [Mrz 2/519] |  |  | > 16.0 | > 16.0 |  |  |  |  |  |
